Results on five molecules are retold here after PMC4014123 (Acta Crystallographica Section D: Biological Crystallography, 2014).

The IC50 is the concentration that gives 50% inhibition.

Entries after “also recorded” stand apart in the source; their conditions may differ. Like-named read-outs stand apart in the source and are kept apart here.

In this experiment the target is Cp-NanI (Clostridium perfringens, UniProt A0A0H2YQR1). Briefly: biochemical.
Chain of Cp-NanI (A0A0H2YQR1 243-694 limits assumed): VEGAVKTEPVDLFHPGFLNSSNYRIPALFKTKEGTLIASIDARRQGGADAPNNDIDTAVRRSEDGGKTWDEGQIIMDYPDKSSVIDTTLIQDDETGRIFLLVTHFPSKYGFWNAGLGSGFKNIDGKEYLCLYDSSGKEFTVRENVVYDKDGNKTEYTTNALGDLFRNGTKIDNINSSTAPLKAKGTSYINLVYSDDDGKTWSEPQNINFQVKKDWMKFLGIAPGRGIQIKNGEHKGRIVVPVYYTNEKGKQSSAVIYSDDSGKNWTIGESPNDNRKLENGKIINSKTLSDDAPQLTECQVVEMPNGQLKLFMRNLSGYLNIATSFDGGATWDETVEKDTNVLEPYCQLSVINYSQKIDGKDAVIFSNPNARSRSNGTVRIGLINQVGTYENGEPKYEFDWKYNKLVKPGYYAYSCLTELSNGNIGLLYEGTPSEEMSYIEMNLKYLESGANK

With `CC(C)=CCC/C(C)=C/Cc1c(O)cc2c(c1O)C(=O)CC(c1ccc(O)c(O)c1)O2` (stereo not shown) [Diplacone, 2-(3,4-dihydroxyphenyl)-6-[(2E)-3,7-dimethylocta-2,6-dienyl]-5,7-dihydroxy-2,3-dihydrochromen-4-one], half-maximal inhibition (IC50) was put at 0.11 µM, the “inhibition kinetics / mechanism” value is listed as “competitive kinetics; also recorded: time-dependent inhibitor”, the “k 5” value came to 0.201 ± 0.003 min⁻¹ and the “k 6” value stood at 0.0017 ± 0.004 min⁻¹. The molecule also displayed a Ki (K i) of 0.04 µM. The molecule also yielded a Ki (K i ^app) of 0.065 ± 0.008 µM.

“6-[(2E)-3,7-dimethylocta-2,6-dienyl]-5,7-dihydroxy-2-(3-hydroxy-4-methoxyphenyl)-2,3-dihydrochromen-4-one [3′-O-Methyldiplacone]”: the IC50 (pH 5, read-out: IC50) turned out to be 14.3 µM.

As for `CC(C)=CCC/C(C)=C/Cc1c(O)cc2c(c1O)C(=O)C[C@@H](c1ccc(O)cc1)O2` [Mimulone, (2S)-6-[(2E)-3,7-dimethylocta-2,6-dienyl]-5,7-dihydroxy-2-(4-hydroxyphenyl)-2,3-dihydrochromen-4-one], the IC50 worked out at 6.1 µM.

The molecule `COc1ccc(C2CC(=O)c3c(cc(O)c(C/C=C(\C)CCC=C(C)C)c3O)O2)cc1O` (stereo not shown) [4′-O-Methyldiplacone, 6-[(2E)-3,7-dimethylocta-2,6-dienyl]-5,7-dihydroxy-2-(3-hydroxy-4-methoxyphenyl)-2,3-dihydrochromen-4-one] registered an IC50 of 12.9 µM.

Take `O=C1C[C@@H](c2ccc(O)c(O)c2)Oc2cc(O)cc(O)c21` [Eriodictyol, (2S)-2-(3,4-dihydroxyphenyl)-5,7-dihydroxy-4-chroman-one, reference compound]: half-maximal inhibition (IC50) required 16.4 µM.
